Tests used:
[1] = test system: transgenic plants expressing N-acetyl-L-ornithine deacetylase gene in tapetal cells; details: Kriete et al. 1996; EP 531,716; cited from earlier work
[2] = test system: transgenic plants expressing phosphonate monoester hydrolase gene in tapetal cells; details: Dotson et al. 1996; cited from earlier work
[3] = test system: transgenic plants expressing bacterial cytochrome P450 gene in tapetal cells; details: WO 91/03561; O'Keefe et al. 1994; cited from earlier work
[4] = test system: conditional female sterile plants (transformed with pFA100); assay: Acetyl-PPT treatment of conditional female sterile tobacco plants; assay type: in vivo; details: T1 tobacco, pFA100 (Stig1-argE), treated during the growing stages; untreated plants remain fully fertile
From the text: Plasmid pFA100 is constructed in a manner similar to pSH58, above, except that the argE gene (SEQ ID NO:3) replaces the GUS gene in Stig1-GUS (Goldman et al., EMBO J. 13:2976-2984 (1994)) in the correct translational reading frame using appropriate restriction enzymes. The STIG1-argE fusion is then ligated into a vector such as pCIB200 containing T-DNA borders, 3′ termination sequences and a functional plant selectable marker such as kanamycin resistance. The Stig1 promoter is a female-preferential promoter.
Tobacco leaf discs are transformed as described in Horsch et al., Science 227:1229-1231 (1985) with pSH58. The presence of the integrated transgenes is confirmed by PCR. Northern analysis of RNA made from female tissue is used to confirm tissue-specific expression of the argE gene in the transgenic plants. These plants are self-fertile and have the phenotype of conditional female sterility. T1 seed is collected after self-pollination. The female conditional transgene in pFA100 is also introduced into tobacco using similar procedures.
Seed of the T1 generation from both conditional female sterile plants (transformed with pFA100) and conditional male sterile plants (transformed with pGK73) are planted in soil. Once plantlets have grown to a sufficient size, leaf tissue is analyzed by PCR for the presence of the argE transgene. PCR positive plants are transferred to the greenhouse. […]

[5] = test system: conditional male sterile plants (transformed with pGK73); assay: Acetyl-PPT treatment of conditional male sterile tobacco plants; assay type: in vivo; details: T1 tobacco, pGK73 (TA29-argE), treated during the growing stages; untreated plants remain fully fertile
From the text: Tobacco leaf discs are also transformed with pGK73, containing an expression cassette of the argE gene under the control of the TA29 promoter (Kriete et al., Plant J. 9:809-818 (1996)) as described in Horsch et al., Science 227:1229-1231 (1985). The presence of the integrated transgenes are confirmed by PCR. Northern analysis of RNA made from anthers is used to confirm tissue-specific expression of the argE gene in the transgenic plants. These plants are self-fertile and have the phenotype of conditional male sterility. Seed of the T1 generation is collected after self-pollination.
Seed of the T1 generation from both conditional female sterile plants (transformed with pFA100) and conditional male sterile plants (transformed with pGK73) are planted in soil. Once plantlets have grown to a sufficient size, leaf tissue is analyzed by PCR for the presence of the argE transgene. PCR positive plants are transferred to the greenhouse. These plants are fully fertile in the absence of exogenously-applied protoxin. A subset of the conditional female sterile plants and a subset of the conditional male sterile plants are treated with the protoxin acetyl-PPT during the growing stages. […] The untreated plants remain fully fertile. Pollen from the treated female sterile plants is collected and used to pollinate the pistils of treated male sterile plants, which are the female parent plants. […]

[6] = test system: plants transformed with pMA200 or pSH68 or pZmgarg; assay: Acetyl-PPT treatment of plants conferring conditional male sterility; assay type: in vivo; details: T1 plants with pMA200 or pSH68 or pZmgarg, treated during the growing stages; untreated plants fully fertile
Method: (§1) Seed from the T1 generation from plants transformed with pFA200 or pSH74 or p19arg (conferring conditional female sterility) and plants transformed with pMA200 or pSH68 or pZmgarg (conferring conditional male sterility) are planted in soil. Once plantlets have grown to a sufficient size, leaf tissue is analyzed by PCR for the presence of the argE transgene. PCR positive plants are transferred to the greenhouse. These plants are fully fertile. A subset of the plants containing pFA200 or pSH74 or p19arg and a subset containing pMA200 or pSH68 or pZmarg are treated with the protoxin acetyl-PPT during the growing stages. […] The untreated plants transformed with pFA200 or pSH74 or p19arg and pMA200 or pSH68 or pZmgarg are fully fertile.

[7] = test system: plants transformed with pFA200 or pSH74 or p19arg; assay: Acetyl-PPT treatment of plants conferring conditional female sterility; assay type: in vivo; details: T1 plants with pFA200 or pSH74 or p19arg, treated during the growing stages; untreated plants fully fertile
Method: as §1

For CC(=O)N[C@@H](CCP(C)(=O)O)C(=O)O [N-acetyl-L-phosphinothricin], the “male fertility after protoxin treatment” value [1] is listed as “rendered male sterile”.
In the case of O=C(O)CNCP(=O)(O)OCC(O)CO (stereo not shown) [glycerol glyphosate, glyceryl glyphosate], the “male fertility after protoxin treatment” value [2] is listed as “rendered male sterile”.
In the case of COc1cc(OC)nc(NC(=O)NS(=O)(=O)c2cccc3c2S(=O)(=O)N(C(C)C)C3)n1 [R7402, 2-methylethyl-2,2-dihydro-N-[(4,6-dimethoxypyrimidin-2-yl)aminocarbonyl]-1,2-benzoiaothiazole-7-sulfonamide-1,1-dioxide], the “male fertility after protoxin treatment” value [3] is given as “rendered male sterile”.
For CC(=O)NC(CCP(C)(=O)O)C(=O)O (stereo not shown) [acetyl-PPT, N-acetyl phosphinothricin], the “fertility of treated conditional female sterile plants” value [4] was “become female sterile”, the “fertility of treated conditional male sterile plants” value [5] was “become male sterile” and the “fertility of treated plants (male reproductive structures)” value [6] was “are male sterile”. For the same compound, the “fertility of treated plants (female reproductive structures)” value [7] was “are female sterile”.

Reference: US6815577B1, “Method of hybrid seed production using conditional female sterility” (Syngenta Participations AG, priority 1997, dated 2004)
